Results: US10501518B2 (priority 2013, dated 2019)
Where two headings read alike, the source gives them in different places.

What was measured:
WT human PTHR-1 = biological target: T1, WT human PTHR-1 (Homo sapiens, UniProt Q03431); test: cAMP GloSensor dose-response in GP-2.3 cells expressing human PTHR-1; type: cell-based; conditions: for cAMP (hPTHR-1) Max: luminescence counts per second relative to PTH(1-34); for cAMP (hPTHR-1) Max / Max: 12-16 minutes after ligand addition; for Fold nM PTH(1-34): EC50 relative to PTH(1-34)
T1 construct: bioactivity of the resulting compound in full-length hPTHR-1 and a truncated version; expressed in transfected cells
T1 sequence (Q03431 27-593): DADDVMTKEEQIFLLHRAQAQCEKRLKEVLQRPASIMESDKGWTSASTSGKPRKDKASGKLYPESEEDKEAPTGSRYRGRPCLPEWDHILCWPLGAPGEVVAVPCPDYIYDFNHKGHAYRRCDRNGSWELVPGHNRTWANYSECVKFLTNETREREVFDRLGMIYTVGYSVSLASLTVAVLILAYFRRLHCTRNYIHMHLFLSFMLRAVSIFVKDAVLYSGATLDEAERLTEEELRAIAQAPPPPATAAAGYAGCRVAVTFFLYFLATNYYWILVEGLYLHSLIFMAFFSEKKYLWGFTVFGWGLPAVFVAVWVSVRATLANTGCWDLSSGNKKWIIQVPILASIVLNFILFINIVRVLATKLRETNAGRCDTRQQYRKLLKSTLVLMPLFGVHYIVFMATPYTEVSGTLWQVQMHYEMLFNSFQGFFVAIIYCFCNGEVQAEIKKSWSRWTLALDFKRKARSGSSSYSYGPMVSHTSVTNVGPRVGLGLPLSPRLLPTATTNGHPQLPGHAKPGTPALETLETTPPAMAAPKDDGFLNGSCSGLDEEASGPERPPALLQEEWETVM
Method in brief: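 Confluent cells preloaded with 0.5 mM d-luciferin at room temperature until luminescence baseline stabilised (30 min), then given varying agonist concentrations. Luminescence time course recorded after α/β-peptide addition. Means ±SEM of n>4 experiments, each in duplicate.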

R^0 form of human PTHR-1 = biological target: T2, R^0 form of human PTHR-1 (Homo sapiens, UniProt Q03431); test: Radio-ligand competition binding to R^0 form of human PTHR-1 (COS-7 membranes, 125I-PTH(1-34) tracer, GTPγS); conditions: for R^0/RG: Table 4, ratio of R^0 to RG IC50, human PTHR-1; for affinity for the R^0 state of hPTHR-1, in words: compared with PTH(1-34)
T2 construct: expressed in transfected cells; host or cells: COS-7
T2 sequence (Q03431 27-593): T1 sequence (Q03431 27-593)
Description: (§1) Data are means (±SEM) of n≥4 experiments, each performed in duplicate.

RG form of rat PTHR-1 = biological target: T3, RG form of rat PTHR-1 (Rattus norvegicus, UniProt P25961); test: Radio-ligand competition binding to RG form of rat PTHR-1
T3 construct: expressed in transfected cells; host or cells: COS-7
T3 sequence (P25961 27-591): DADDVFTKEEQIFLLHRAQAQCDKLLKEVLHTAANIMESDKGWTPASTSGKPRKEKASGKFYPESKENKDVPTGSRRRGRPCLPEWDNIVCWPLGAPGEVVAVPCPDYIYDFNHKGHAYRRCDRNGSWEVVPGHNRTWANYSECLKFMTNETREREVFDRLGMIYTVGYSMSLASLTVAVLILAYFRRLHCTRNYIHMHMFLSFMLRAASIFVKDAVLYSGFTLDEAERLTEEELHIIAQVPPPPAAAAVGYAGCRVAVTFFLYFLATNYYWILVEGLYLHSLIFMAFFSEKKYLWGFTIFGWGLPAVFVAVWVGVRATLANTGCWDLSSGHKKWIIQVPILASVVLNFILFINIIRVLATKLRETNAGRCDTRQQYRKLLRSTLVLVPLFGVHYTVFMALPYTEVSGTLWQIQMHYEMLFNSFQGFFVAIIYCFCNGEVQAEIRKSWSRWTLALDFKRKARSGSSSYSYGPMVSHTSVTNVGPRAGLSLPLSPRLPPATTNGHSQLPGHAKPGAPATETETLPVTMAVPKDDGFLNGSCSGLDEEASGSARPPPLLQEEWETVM
Description: as §1

R^0 form of rat PTHR-1 = biological target: T4, R^0 form of rat PTHR-1 (Rattus norvegicus, UniProt P25961); test: Radio-ligand competition binding to R^0 form of rat PTHR-1; conditions: for R^0/RG: ratio of R^0 to RG IC50, rat PTHR-1; for affinity for the R^0 state of rPTHR-1, in words: compared with PTH(1-34)
T4 construct: expressed in transfected cells; host or cells: COS-7
T4 sequence (P25961 27-591): T3 sequence (P25961 27-591)
Description: as §1

RG form of human PTHR-1 = biological target: T5, RG form of human PTHR-1 (Homo sapiens, UniProt Q03431); test: Radio-ligand competition binding to RG form of human PTHR-1 (COS-7 membranes, 125I-M-PTH(1-15) tracer, high affinity Gαs mutant)
T5 construct: expressed in transfected cells; host or cells: COS-7
T5 sequence (Q03431 27-593): T1 sequence (Q03431 27-593)
Description: as §1

[1] = Table 6, GP-2.3 cells, mean ± SEM
[2] = Table 2, read-out: RG IC50, nM, Binding (rPTHR-1)
[3] = Table 2, read-out: R^0 IC50, nM, Binding (rPTHR-1)
[4] = Table 5, rat PTHR-1, mean ± SEM, read-out: R^0 -log (IC50) (converted)

SMILES | EC50 (WT human PTHR-1; Table 1, GP-2.3 cells, read-out: cAMP (hPTHR-1) EC50) [nM] | cAMP (hPTHR-1) Max (WT human PTHR-1; Table 1) | Fold nM PTH(1-34) (WT human PTHR-1; Table 6) | Max (WT human PTHR-1; [1]) | IC50 (R^0 form of human PTHR-1; Table 1, COS-7 membranes, 125I-PTH(1-34) tracer, GTPγS, read-out: R^0 IC50, nM, Binding (hPTHR-1)) [nM] | R^0/RG (R^0 form of human PTHR-1) | affinity for the R^0 state of hPTHR-1, in words (R^0 form of human PTHR-1) | IC50 (RG form of rat PTHR-1; [2]) [nM] | IC50 (RG form of rat PTHR-1; Table 5, rat PTHR-1, mean ± SEM, read-out: RG -log (IC50) (converted)) [nM] | IC50 (R^0 form of rat PTHR-1; [3]) [nM] | IC50 (R^0 form of rat PTHR-1; [4]) [nM] | R^0/RG (R^0 form of rat PTHR-1; Table 5) | affinity for the R^0 state of rPTHR-1, in words (R^0 form of rat PTHR-1) | IC50 (RG form of human PTHR-1; Table 1, 125I-M-PTH(1-15) tracer, Gαs mutant, read-out: RG IC50, nM, Binding (hPTHR-1)) [nM] | pEC50 (WT human PTHR-1; [1]) | IC50 (R^0 form of human PTHR-1) [nM] | IC50 (RG form of human PTHR-1) [nM]
CC[C@H](C)[C@H](NC(=O)[C@H](CCC(=O)O)NC(=O)[C@H](CO)NC(=O)[C@@H](NC(=O)[C@@H](N)CO)C(C)C)C(=O)N[C@@H](CCC(N)=O)C(=O)N[C@@H](CC(C)C)C(=O)N[C@@H](CCSC)C(=O)N[C@@H](Cc1c[nH]cn1)C(=O)N[C@@H](CC(N)=O)C(=O)N[C@@H](CC(C)C)C(=O)NCC(=O)N[C@@H](CCCCN)C(=O)N[C@@H](Cc1c[nH]cn1)C(=O)N[C@@H](CC(C)C)C(=O)N[C@@H](CC(N)=O)CC(=O)N[C@@H](CO)C(=O)N[C@@H](CCSC)C(=O)N[C@@H](CCC(=O)O)C(=O)N[C@@H](CCCNC(=N)N)CC(=O)N[C@H](C(=O)N[C@@H](CCC(=O)O)C(=O)N[C@@H](Cc1c[nH]c2ccccc12)C(=O)N[C@H](CC(=O)N[C@@H](CCCNC(=N)N)C(=O)N[C@@H](CCCCN)C(=O)N[C@@H](CCCCN)C(=O)N[C@H](CC(=O)N[C@@H](CCC(N)=O)C(=O)N[C@@H](CC(=O)O)C(=O)N[C@H](C(=O)N[C@@H](CCC(N)=O)CC(=O)N[C@@H](CC(N)=O)C(=O)N[C@@H](Cc1ccccc1)C(N)=O)C(C)C)CC(C)C)CC(C)C)C(C)C [B5] | 0.11 | 0.98 | 0.63 | 212 ± 30 luminescence counts per second × 10^−3 | 19 | 225 | an order of magnitude more weakly | 4.2 | 4.27 | 65 | 66.1 | 15 | significantly weaker affinity | 0.086 |  |  | 
CC[C@H](C)[C@H](NC(=O)[C@H](CCC(=O)O)NC(=O)[C@H](CO)NC(=O)[C@@H](NC(=O)[C@@H](N)CO)C(C)C)C(=O)N[C@@H](CCC(N)=O)C(=O)N[C@@H](CC(C)C)C(=O)N[C@@H](CCSC)C(=O)N[C@@H](Cc1cnc[nH]1)C(=O)N[C@@H](CC(N)=O)C(=O)N[C@@H](CC(C)C)C(=O)NCC(=O)N[C@@H](CCCCN)C(=O)N[C@H](CC(=O)N[C@@H](CC(C)C)C(=O)N[C@@H](CC(N)=O)C(=O)N[C@@H](CO)C(=O)N[C@@H](CCSC)CC(=O)N[C@@H](CCC(=O)O)C(=O)N[C@@H](CCCNC(=N)N)C(=O)N[C@H](C(=O)N[C@@H](CCC(=O)O)CC(=O)N[C@@H](Cc1c[nH]c2ccccc12)C(=O)N[C@@H](CC(C)C)C(=O)N[C@@H](CCCNC(=N)N)C(=O)N[C@@H](CCCCN)CC(=O)N[C@@H](CCCCN)C(=O)N[C@@H](CC(C)C)C(=O)N[C@@H](CCC(N)=O)C(=O)N[C@@H](CC(=O)O)CC(=O)N[C@H](C(=O)N[C@@H](Cc1cnc[nH]1)C(=O)N[C@@H](CC(N)=O)C(=O)N[C@H](CC(N)=O)Cc1ccccc1)C(C)C)C(C)C)Cc1c[nH]c2ccccc12 [D6] |  | 0.87 | 0.76 | 189 ± 29 luminescence counts per second × 10^−3 |  | 31 | comparably to PTH(1-34) | 0.81 |  | 6.1 | 6.03 | 8 | somewhat weaker affinity |  | 9.89 ± 0.08 | 2 | 0.065
CC[C@H](C)[C@H](NC(=O)[C@H](CCC(=O)O)NC(=O)[C@H](CO)NC(=O)[C@@H](NC(=O)[C@@H](N)CO)C(C)C)C(=O)N[C@@H](CCC(N)=O)C(=O)N[C@@H](CC(C)C)C(=O)N[C@@H](CCSC)C(=O)N[C@@H](Cc1cnc[nH]1)C(=O)N[C@@H](CC(N)=O)C(=O)N[C@@H](CC(C)C)C(=O)NCC(=O)N[C@@H](CCCCN)C(=O)N[C@@H](Cc1cnc[nH]1)C(=O)N[C@@H](CC(C)C)C(=O)N[C@@H](CC(N)=O)C(=O)N[C@@H](CO)C(=O)N[C@@H](CCSC)C(=O)N[C@@H](CCC(=O)O)C(=O)N[C@@H](CCCN=C(N)N)C(=O)N[C@H](C(=O)N[C@@H](CCC(=O)O)C(=O)N[C@@H](Cc1c[nH]c2ccccc12)C(=O)N[C@@H](CC(C)C)C(=O)N[C@@H](CCCN=C(N)N)C(=O)N[C@@H](CCCCN)C(=O)N[C@@H](CCCCN)C(=O)N[C@@H](CC(C)C)C(=O)N[C@@H](CCC(N)=O)C(=O)N[C@@H](CC(=O)O)C(=O)N[C@H](C(=O)N[C@@H](Cc1cnc[nH]1)C(=O)N[C@@H](CC(N)=O)C(=O)N[C@@H](Cc1ccccc1)C(=O)O)C(C)C)C(C)C [PTH(1-34), reference compound] |  | 1.00 |  | 217 ± 20 luminescence counts per second × 10^−3 |  |  |  |  |  |  |  |  |  |  |  |  | 
